Experimental data taken from ChEMBL document CHEMBL2021863, “Design and synthesis of new 4-pyrazolin-3-yl-1,2,3-triazoles and 1,2,3-triazol-4-yl-pyrazolin-1-ylthiazoles as potential antimicrobial agents” (2012).
≈ marks a conversion by molar mass, not a printed value.

Legend:
Type in all cases: functional
Staphylococcus aureus [1] = assay: Antimicrobial activity against Staphylococcus aureus ATCC 29213 at 100 ug/ml after 24 hrs by agar well diffusion assay; conditions: ATCC 29213, 24 h, read-out: DIZ
Bacillus subtilis [2] = assay: Antimicrobial activity against Bacillus subtilis ATCC 6633 at 100 ug/ml after 24 hrs by agar well diffusion assay; conditions: ATCC 6633, 24 h, read-out: DIZ
Micrococcus luteus [3] = assay: Antimicrobial activity against Sarcina lutea at 100 ug/ml after 24 hrs by agar well diffusion assay; conditions: read-out: DIZ
Saccharomyces cerevisiae [4] = assay: Antifungal activity against Saccharomyces cerevisiae at 100 ug/ml after 24 hrs by agar well diffusion assay; conditions: read-out: DIZ
Candida albicans [5] = assay: Antifungal activity against Candida albicans NRRL Y-477 at 100 ug/ml after 24 hrs by agar well diffusion assay; conditions: NRRL Y-477, 24 h, read-out: DIZ
Staphylococcus aureus [6] = assay: Antimicrobial activity against Staphylococcus aureus ATCC 29213 after 24 hrs by two-fold serial dilution method; conditions: ATCC 29213, 24 h
Bacillus subtilis [7] = assay: Antimicrobial activity against Bacillus subtilis ATCC 6633 after 24 hrs by two-fold serial dilution method; conditions: ATCC 6633, 24 h
Micrococcus luteus [8] = assay: Antimicrobial activity against Sarcina lutea after 24 hrs by two-fold serial dilution method
Saccharomyces cerevisiae [9] = assay: Antifungal activity against Saccharomyces cerevisiae by two-fold serial dilution method
Candida albicans [10] = assay: Antifungal activity against Candida albicans NRRL Y-477 by two-fold serial dilution method
Priestia megaterium [11] = assay: Antimicrobial activity against Bacillus megaterium ATCC 9885 at 100 ug/ml after 24 hrs by agar well diffusion assay; conditions: ATCC 9885, 24 h, read-out: DIZ
Pseudomonas aeruginosa [12] = assay: Antimicrobial activity against Pseudomonas aeruginosa ATCC 27953 at 100 ug/ml after 24 hrs by agar well diffusion assay; conditions: ATCC 27953, 24 h, read-out: DIZ
Escherichia coli [13] = assay: Antimicrobial activity against Escherichia coli ATCC 25922 at 100 ug/ml after 24 hrs by agar well diffusion assay; conditions: ATCC 25922, 24 h, read-out: DIZ
Priestia megaterium [14] = assay: Antimicrobial activity against Bacillus megaterium ATCC 9885 after 24 hrs by two-fold serial dilution method; conditions: ATCC 9885, 24 h
Pseudomonas aeruginosa [15] = assay: Antimicrobial activity against Pseudomonas aeruginosa ATCC 27953 after 24 hrs by two-fold serial dilution method; conditions: ATCC 27953, 24 h
Escherichia coli [16] = assay: Antimicrobial activity against Escherichia coli ATCC 25922 after 24 hrs by two-fold serial dilution method; conditions: ATCC 25922, 24 h
Klebsiella pneumoniae [17] = assay: Antimicrobial activity against Klebsiella pneumoniae ATCC 13883 at 100 ug/ml after 24 hrs by agar well diffusion assay; conditions: ATCC 13883, 24 h, read-out: DIZ
Klebsiella pneumoniae [18] = assay: Antimicrobial activity against Klebsiella pneumoniae ATCC 13883 after 24 hrs by two-fold serial dilution method; conditions: ATCC 13883, 24 h

Compound	MIC (Staphylococcus aureus [6])	MIC (Bacillus subtilis [7])	MIC (Micrococcus luteus [8])	MIC (Saccharomyces cerevisiae [9])	MIC (Candida albicans [10])	MIC (Priestia megaterium [14])	MIC (Pseudomonas aeruginosa [15])	MIC (Escherichia coli [16])	MIC (Klebsiella pneumoniae [18])	zone of inhibition at 100 µg/mL (Staphylococcus aureus [1])	zone of inhibition at 100 µg/mL (Bacillus subtilis [2])	zone of inhibition at 100 µg/mL (Micrococcus luteus [3])	zone of inhibition at 100 µg/mL (Saccharomyces cerevisiae [4])	zone of inhibition at 100 µg/mL (Candida albicans [5])	zone of inhibition at 100 µg/mL (Priestia megaterium [11])	zone of inhibition at 100 µg/mL (Pseudomonas aeruginosa [12])	zone of inhibition at 100 µg/mL (Escherichia coli [13])	zone of inhibition at 100 µg/mL (Klebsiella pneumoniae [17])
Cc1ccc(-n2nnc(C3=NNC(c4ccc(N5CCCCC5)cc4)C3)c2C)cc1 (stereo not given)	132 µg/mL (≈ 330 µM)	132 µg/mL (≈ 330 µM)	33 µg/mL (≈ 82.4 µM)	66 µg/mL (≈ 165 µM)	132 µg/mL (≈ 330 µM)					18 mm	16 mm	18 mm	18 mm	18 mm				
Cc1ccc(-n2nnc(C(=O)/C=C/c3ccc(F)cc3)c2C)cc1	16.5 µg/mL (≈ 51.3 µM)	16.5 µg/mL (≈ 51.3 µM)	132 µg/mL (≈ 411 µM)	16.5 µg/mL (≈ 51.3 µM)	16.5 µg/mL (≈ 51.3 µM)	16.5 µg/mL (≈ 51.3 µM)	132 µg/mL (≈ 411 µM)		132 µg/mL (≈ 411 µM)	20 mm	26 mm	16 mm	23 mm	22 mm	24 mm	16 mm		16 mm
Cc1ccc(-n2nnc(C3=NN(C(N)=S)C(c4ccc(F)cc4)C3)c2C)cc1 (stereo not given)			132 µg/mL (≈ 335 µM)	8.25 µg/mL (≈ 20.9 µM)	16.5 µg/mL (≈ 41.8 µM)	132 µg/mL (≈ 335 µM)	16.5 µg/mL (≈ 41.8 µM)	16.5 µg/mL (≈ 41.8 µM)				16 mm	30 mm	26 mm	18 mm	26 mm	22 mm	
Cc1ccc(-n2nnc(C3=NN(C4=NC(=O)CS4)C(c4ccc(F)cc4)C3)c2C)cc1 (stereo not given)			132 µg/mL (≈ 304 µM)	66 µg/mL (≈ 152 µM)	132 µg/mL (≈ 304 µM)	8.25 µg/mL (≈ 19 µM)	33 µg/mL (≈ 75.9 µM)	8.25 µg/mL (≈ 19 µM)				16 mm	18 mm	16 mm	30 mm	20 mm	28 mm	
Cc1ccc(-n2nnc(C3=NN(c4nc(-c5ccc(Cl)cc5)cs4)C(c4ccc(F)cc4)C3)c2C)cc1 (stereo not given)	8.25 µg/mL (≈ 15.6 µM)	8.25 µg/mL (≈ 15.6 µM)	66 µg/mL (≈ 125 µM)	16.5 µg/mL (≈ 31.2 µM)	16.5 µg/mL (≈ 31.2 µM)		16.5 µg/mL (≈ 31.2 µM)	33 µg/mL (≈ 62.4 µM)	16.5 µg/mL (≈ 31.2 µM)	28 mm	30 mm	22 mm	28 mm	25 mm		24 mm	29 mm	28 mm
Cc1ccc(-n2nnc(C3=NN(C(=S)Nc4ccccc4)C(c4ccccc4)C3)c2C)cc1 (stereo not given)	8.25 µg/mL (≈ 18.2 µM)		66 µg/mL (≈ 146 µM)	16.5 µg/mL (≈ 36.5 µM)	16.5 µg/mL (≈ 36.5 µM)	8.25 µg/mL (≈ 18.2 µM)	132 µg/mL (≈ 292 µM)	8.25 µg/mL (≈ 18.2 µM)	16.5 µg/mL (≈ 36.5 µM)	18 mm	26 mm	20 mm	26 mm	24 mm	24 mm	24 mm		18 mm
Cc1ccc(-n2nnc(C3=NNC(c4ccccc4)C3)c2C)cc1 (stereo not given)	8.25 µg/mL (≈ 26 µM)	8.25 µg/mL (≈ 26 µM)	16.5 µg/mL (≈ 52 µM)	8.25 µg/mL (≈ 26 µM)	8.25 µg/mL (≈ 26 µM)	132 µg/mL (≈ 416 µM)	8.25 µg/mL (≈ 26 µM)	132 µg/mL (≈ 416 µM)		34 mm	32 mm	30 mm	28 mm	28 mm	16 mm	28 mm	16 mm	

Continued by falling MIC (Micrococcus luteus [8]), values first:

MIC (Staphylococcus aureus [6])	MIC (Bacillus subtilis [7])	MIC (Micrococcus luteus [8])	MIC (Saccharomyces cerevisiae [9])	MIC (Candida albicans [10])	MIC (Priestia megaterium [14])	MIC (Pseudomonas aeruginosa [15])	MIC (Escherichia coli [16])	MIC (Klebsiella pneumoniae [18])	Compound	zone of inhibition at 100 µg/mL (Staphylococcus aureus [1])	zone of inhibition at 100 µg/mL (Bacillus subtilis [2])	zone of inhibition at 100 µg/mL (Micrococcus luteus [3])	zone of inhibition at 100 µg/mL (Saccharomyces cerevisiae [4])	zone of inhibition at 100 µg/mL (Candida albicans [5])	zone of inhibition at 100 µg/mL (Priestia megaterium [11])	zone of inhibition at 100 µg/mL (Pseudomonas aeruginosa [12])	zone of inhibition at 100 µg/mL (Escherichia coli [13])	zone of inhibition at 100 µg/mL (Klebsiella pneumoniae [17])
132 µg/mL (≈ 234 µM)	33 µg/mL (≈ 58.5 µM)	66 µg/mL (≈ 117 µM)	8.25 µg/mL (≈ 14.6 µM)	8.25 µg/mL (≈ 14.6 µM)	8.25 µg/mL (≈ 14.6 µM)	33 µg/mL (≈ 58.5 µM)	8.25 µg/mL (≈ 14.6 µM)		Cc1ccc(-n2nnc(C3=NN(C(=S)NC(=O)c4ccccc4)C(c4ccc(N5CCCCC5)cc4)C3)c2C)cc1 (stereo not given)	16 mm	24 mm	23 mm	30 mm	30 mm	30 mm	26 mm	32 mm	
132 µg/mL (≈ 342 µM)	33 µg/mL (≈ 85.4 µM)	33 µg/mL (≈ 85.4 µM)	66 µg/mL (≈ 171 µM)	16.5 µg/mL (≈ 42.7 µM)	33 µg/mL (≈ 85.4 µM)	132 µg/mL (≈ 342 µM)	8.25 µg/mL (≈ 21.3 µM)		Cc1ccc(-n2nnc(C(=O)/C=C/c3ccc(N4CCCCC4)cc3)c2C)cc1	16 mm	18 mm	28 mm	20 mm	18 mm	20 mm	16 mm	28 mm	
33 µg/mL (≈ 69.1 µM)		33 µg/mL (≈ 69.1 µM)	8.25 µg/mL (≈ 17.3 µM)	33 µg/mL (≈ 69.1 µM)		66 µg/mL (≈ 138 µM)			Cc1ccc(-n2nnc(C3=NN(C(=S)Nc4ccccc4)C(c4ccc(C#N)cc4)C3)c2C)cc1 (stereo not given)	20 mm		24 mm	24 mm	22 mm		22 mm		
132 µg/mL (≈ 281 µM)	16.5 µg/mL (≈ 35.1 µM)	16.5 µg/mL (≈ 35.1 µM)	16.5 µg/mL (≈ 35.1 µM)	16.5 µg/mL (≈ 35.1 µM)	16.5 µg/mL (≈ 35.1 µM)			16.5 µg/mL (≈ 35.1 µM)	Cc1ccc(-n2nnc(C3=NN(C(=S)Nc4ccccc4)C(c4ccc(F)cc4)C3)c2C)cc1 (stereo not given)	16 mm	27 mm	20 mm	24 mm	22 mm	20 mm			22 mm
16.5 µg/mL (≈ 50.2 µM)	8.25 µg/mL (≈ 25.1 µM)	16.5 µg/mL (≈ 50.2 µM)	8.25 µg/mL (≈ 25.1 µM)	16.5 µg/mL (≈ 50.2 µM)		8.25 µg/mL (≈ 25.1 µM)	132 µg/mL (≈ 402 µM)	16.5 µg/mL (≈ 50.2 µM)	Cc1ccc(-n2nnc(C(=O)/C=C/c3ccc(C#N)cc3)c2C)cc1	23 mm	28 mm	24 mm	30 mm	24 mm		26 mm	16 mm	24 mm
